33 compounds from US20220169632A1, “METHODS AND MATERIALS FOR INCREASING OR MAINTAINING NICOTINAMIDE MONONUCLEOTIDE ADENYLYL TRANSFERASE-2 (NMNAT2) POLYPEPTIDE LEVELS” (University of Pittsburgh - Of the Commonwealth System of …, priority 2019, published 2022) can be followed below.

The first assay concerns NMNAT2. In words: NMNAT2-Hibit nano-luciferase activity in transfected U87MG cells, 5 μM, 48 hours. The format is cell-based. The following applies: NMNAT2-Hibit luciferase plasmid, 48 hours (Table D). On the procedure: Selected compounds were tested in vitro. Briefly, U87MG cells were transfected with NMNAT2-Hibit luciferase plasmid. Cells were treated with test compound at 5 μM for 48 hours. Cells were then collected and assayed for nano-luciferase activity.
As to `Cc1ccc(Cn2cc(C(CC(=O)NCc3ccco3)c3cccc(C)c3)c3ccccc32)cc1` (stereo not drawn) [BC181259], the “D: compound efficacy for NMNAT2 activation; increase in NMNAT2 luciferase activity” value was “++ (“++” >20% and <100% increase in NMNAT2 luciferase activity.)”.

`Cc1ccc(Cn2cc(C(CC(=O)NCc3ccco3)c3ccccc3C)c3ccccc32)cc1` (stereo not drawn) [BC181260]: the “D: compound efficacy for NMNAT2 activation; increase in NMNAT2 luciferase activity” value was “++ (“++” >20% and <100% increase in NMNAT2 luciferase activity.)”.

For the compound `COc1ccc(C(CC(=O)NCc2ccco2)c2cn(Cc3ccc(C)cc3)c3ccccc23)cc1` (stereo not drawn) [BC181261], the “D: compound efficacy for NMNAT2 activation; increase in NMNAT2 luciferase activity” value was “++ (“++” >20% and <100% increase in NMNAT2 luciferase activity.)”.

As to `Cc1ccc(Cn2cc(C(CC(=O)NCc3ccco3)c3ccc(C)cc3)c3ccccc32)cc1` (stereo not drawn) [BC181262], the “D: compound efficacy for NMNAT2 activation; increase in NMNAT2 luciferase activity” value was “++ (“++” >20% and <100% increase in NMNAT2 luciferase activity.)”.

For `COc1ccc(Cn2cc(C(CC(=O)NCc3ccco3)C(C)(C)C)c3ccccc32)cc1` (stereo not drawn) [BC181263], the “D: compound efficacy for NMNAT2 activation; increase in NMNAT2 luciferase activity” value is “++ (“++” >20% and <100% increase in NMNAT2 luciferase activity.)”.

Take `O=C(CC(CCc1ccccc1)c1cn(Cc2ccccc2)c2ccccc12)NCc1ccco1` (stereo not drawn) [BC181264]: the “D: compound efficacy for NMNAT2 activation; increase in NMNAT2 luciferase activity” value is “+ (“+” <20% increase in NMNAT2 luciferase activity.)”.

As for `Cc1ccc(Cn2cc(C(CC(=O)NCc3ccco3)C(C)C)c3ccccc32)cc1` (stereo not drawn) [BC181265], the “D: compound efficacy for NMNAT2 activation; increase in NMNAT2 luciferase activity” value is “+ (“+” <20% increase in NMNAT2 luciferase activity.)”.

Regarding `CC(=O)c1cn(CC(=O)NCc2ccncc2)c2ccccc12` [BC181266], the “D: compound efficacy for NMNAT2 activation; increase in NMNAT2 luciferase activity” value is reported as “+ (“+” <20% increase in NMNAT2 luciferase activity.)”.

Regarding `CC(=O)c1cn(CC(=O)NCc2ccc(C)cc2)c2ccccc12` [BC181267], the “D: compound efficacy for NMNAT2 activation; increase in NMNAT2 luciferase activity” value was “+ (“+” <20% increase in NMNAT2 luciferase activity.)”.

With `CC(=O)c1cn(CC(=O)NCCn2ccc3ccc(C)cc32)c2ccccc12` [BC181268], the “D: compound efficacy for NMNAT2 activation; increase in NMNAT2 luciferase activity” value was “++ (“++” >20% and <100% increase in NMNAT2 luciferase activity.)”.

The subject of the next assay is NMNAT2-V5 polypeptide. In words: NMNAT2-V5 polypeptide expression in transfected Beas2B cells (Western blot), dose dependent, 24 h. Format: cell-based. As to conditions: Beas2B cells transfected with NMNAT2-V5 plasmid, compound for 24 hours, read-out: A: compound efficacy (IC50) for NMNAT2 activation. On the procedure:
FIG. 1. Beas2B cells were transfected with NMNAT2-V5 plasmid. 24 hours later, cells were treated with compounds in a dose dependent manner (0, 1, 5, and 25 μM) for additional 24 hours. Cells were then collected and assayed for NMNAT2-V5 protein expression.
Selected compounds were tested in vitro. Briefly, Beas2B cells were transfected with NMNAT2-V5 plasmid. 24 hours later, cells were treated with a test compound in a dose dependent manner for additional 24 hours. Cells were then collected and assayed for NMNAT2-V5 polypeptide expression. Results of the assay are shown in Table A. Western blots showing levels of NMNAT2-V5 polypeptide for selected compounds are shown in FIG. 1.
A general note: A western blot detects proteins with antibodies after separation by electrophoresis.
With `O=C(COCc1cc(-c2cccs2)sn1)NCCN1CCC(Cc2ccccc2)CC1` [BC18115], the IC50 (in general, the concentration that gives 50% inhibition) lay within 5 to 25 µM.

With `CC(=O)Nc1ccc(NC(=O)c2ccccc2OCc2nc(-c3ccc(C)cc3)ns2)cc1` [BC18116], the IC50 is at least 25 µM.

Turning to `COc1ccc(OC)c(CCNC(=O)C(Cc2ccccc2)N2Cc3ccccc3C2)c1` (stereo not drawn) [BC18117], the IC50 lay in the range of 5 to 25 µM.

With `COc1ccc(OCC(=O)Nc2ccc3c(c2)nc(CCNC(=O)c2cccs2)n3C)cc1` [BC18118], the IC50 is at least 25 µM.

In the case of `O=C(CCc1nnc2n(Cc3ccccc3)c(=O)c3ccccc3n12)N1CCN(CCOc2ccc(Cl)cc2)CC1` [BC18120], the IC50 is below 5 µM.

On to `CN(CCc1nsc(-c2ccc(C(=O)NCc3ccc4c(c3)OCO4)cc2)n1)C(=O)c1ccccc1` [BC18121], for which the IC50 is at least 25 µM.

For `O=C(Cn1c(=O)[nH]c2ccccc2c1=O)NCc1ccncc1` [BC18122], the IC50 lay within 5 to 25 µM.

For the compound `Cc1n[nH]c(/C=C/c2ccc(N)cc2)c1S(=O)(=O)N1CCC(C(=O)N2CCN(Cc3ccc4c(c3)OCO4)CC2)CC1` [BC18123], the IC50 is below 5 µM.

As for `O=C(COc1ccc(F)cc1)N1CCN(Cc2cccc(-c3n[nH]c(-c4cccc(Cl)c4)n3)c2)CC1` [BC18124], the IC50 was below 5 µM.

On to `Cc1ccc2onc(CNC(=O)NCc3cccc(Cl)c3)c2c1` [BC18125], for which the IC50 is below 5 µM.

Take `O=C(Cn1ccc2ccc(F)cc21)NCc1ccco1` [BC18126]: the IC50 is below 5 µM.

For the compound `O=C(Cn1ccc2ccc(F)cc21)NCc1ccccn1` [BC18127], the IC50 fell in the range of 5 to 25 µM.

With `Cc1cc(C)n(CC(=O)NCc2ccco2)c(=O)c1C#N` [BC18128], the IC50 was below 5 µM.

Consider `Cc1ccc2onc(CNC(=O)NCc3ccccn3)c2c1` [BC18129], for which the IC50 was 5 to 25 µM.

For `O=C(CSC1=Nc2ccccc2C2=NC(CCC(=O)N3CCN(c4ccccc4)CC3)C(=O)C12)NCC1CCCO1` (stereo not drawn) [BC18130], the IC50 lay in the range of 5 to 25 µM.

For the compound `CCn1cc(C(=O)NC(C)c2ccc3c(c2)OCCO3)c(=O)c2cc(S(=O)(=O)N3CCc4ccccc4C3)ccc21` (stereo not drawn) [BC18131], the IC50 fell in the range of 5 to 25 µM.

Turning to `O=C(COc1nc2cc(C(=O)NCc3ccc(F)cc3)ccc2c(=O)n1CCOO)c1ccc(O)cc1` [BC18132], the IC50 was below 5 µM.

Regarding `COc1ccc(OC)c(CCNC(=O)C(Cc2ccccc2)N2Cc3ccccc3C2=O)c1` (stereo not drawn) [BC18133], the IC50 lay in the range of 5 to 25 µM.

`COc1cccc(NS(=O)(=O)c2ccc3[nH]cc(C(=O)NC(C)c4ccc5c(c4)OCCO5)c(=O)c3c2)c1` (stereo not drawn) [BC18134]: the IC50 was at least 25 µM.

`N#Cc1nc(-c2ccc(COc3ccccc3)s2)sc1OCCc1ccc(ON)cc1` [BC18135]: the IC50 was at least 25 µM.

In the case of `O=C(COCc1cc(-c2cccs2)sn1)NCCN1CCC(Cc2ccccc2)CC1` [BC18136], the IC50 was at least 25 µM.

With `CC(=O)Nc1ccc(NC(=O)c2ccccc2OCc2nc(-c3ccc(C)cc3)ns2)cc1` [BC18137], the IC50 lay in the range of 5 to 25 µM.

Take `COc1ccc(OC)c(CCNC(=O)C(Cc2ccccc2)N2Cc3ccccc3C2=O)c1` (stereo not drawn) [BC18138]: the IC50 lay within 5 to 25 µM.
